From patent US8222260B2, “Substituted 6-anilinopurine derivatives as inhibitors of cytokinin oxidase/dehydrogenase and preparations containing these derivatives” (Univerzita Palackego V Olomouci, priority 2007, dated 2012)

Tests used:
[1] = tested on: erytroid leukemia cell line K-562; experiment: Calcein AM cytotoxicity assay; format: cell-based, human; conditions: Homo sapiens, K562, 72 hours
Method in brief: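 Cells seeded at 2.500-30.000 per well, pre-incubated 24 h, then exposed 72 h at 37 °C to six 3-fold dilutions (top 166.6 μM), in triplicate. Calcein AM added to 1 μg/ml for 1 h; fluorescence gives growth inhibition, GI50 taken from dose-response curves.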

AHK3 = target: T1, AHK3 (Arabidopsis thaliana, UniProt Q9C5U1); experiment: Activation of cytokinin receptors (E. coli KMI001 beta-galactosidase reporter); format: cell-based; conditions: 28 h incubation; n.a. means no activation
T1 sequence (Q9C5U1 1-1036): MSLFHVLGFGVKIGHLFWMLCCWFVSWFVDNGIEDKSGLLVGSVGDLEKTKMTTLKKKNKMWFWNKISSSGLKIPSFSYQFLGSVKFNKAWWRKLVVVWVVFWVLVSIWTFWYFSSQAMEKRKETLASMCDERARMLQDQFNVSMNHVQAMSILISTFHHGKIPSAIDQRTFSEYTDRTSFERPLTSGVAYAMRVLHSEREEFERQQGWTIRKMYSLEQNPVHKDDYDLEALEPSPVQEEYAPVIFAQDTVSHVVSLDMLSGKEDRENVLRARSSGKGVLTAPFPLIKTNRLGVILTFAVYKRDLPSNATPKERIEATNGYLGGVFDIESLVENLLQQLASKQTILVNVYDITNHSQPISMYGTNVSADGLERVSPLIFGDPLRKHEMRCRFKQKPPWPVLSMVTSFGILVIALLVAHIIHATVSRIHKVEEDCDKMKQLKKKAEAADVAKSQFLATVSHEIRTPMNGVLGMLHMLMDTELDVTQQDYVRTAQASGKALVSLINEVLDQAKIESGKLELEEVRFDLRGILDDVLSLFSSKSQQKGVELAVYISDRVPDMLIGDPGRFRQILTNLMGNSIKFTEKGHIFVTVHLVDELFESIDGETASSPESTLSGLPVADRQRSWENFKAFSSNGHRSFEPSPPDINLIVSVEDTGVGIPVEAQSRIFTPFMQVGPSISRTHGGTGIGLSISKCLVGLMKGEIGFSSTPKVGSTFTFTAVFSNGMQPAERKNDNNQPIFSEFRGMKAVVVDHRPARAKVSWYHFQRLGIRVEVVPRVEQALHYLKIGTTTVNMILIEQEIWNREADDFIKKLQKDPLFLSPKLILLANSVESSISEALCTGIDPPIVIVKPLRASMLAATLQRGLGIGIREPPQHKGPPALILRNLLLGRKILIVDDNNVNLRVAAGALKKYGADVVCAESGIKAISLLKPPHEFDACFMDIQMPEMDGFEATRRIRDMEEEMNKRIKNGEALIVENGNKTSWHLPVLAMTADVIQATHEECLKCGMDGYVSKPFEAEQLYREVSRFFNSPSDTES
Method in brief: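 E. coli KMI001 carrying the receptor plasmid was grown in M9 + 0.1% casamino acids at 25 °C, diluted 1:600 and treated with compound (stock solutions 10^-7–5×10^-5 M). Supernatant β-galactosidase was read by 4-methylumbelliferyl galactoside hydrolysis (1 h, 37 °C, Na2CO3 stop). EC50 came from dose-response curves, triplicate means.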

WT Arabidopsis plants = experiment: Prolonged treatment of WT Arabidopsis plants, flowering; format: in vivo
Experimental: Transgenic 35S:AtCKX1 Arabidopsis and 35S:AtCKX1 and 35S:AtCKX2 tobacco seedlings grown in soil in the greenhouse were systematically treated with 10 μM of compound 12. Areal parts of the wild type and transgenic seedlings were sprayed every second day for 1 month with aqueous solution of compound 12 containing 0.01% Silwet L-77 wetting agent.
Flowers had aborted anthers and were sterile.

[2] = tested on: CKX1 overproducing Arabidopsis seedlings; experiment: CKX1 overproducing Arabidopsis seedlings grown in vitro on MS medium, phenotype reversion; format: in vivo; conditions: in vitro on MS medium containing 0.1 μM compound
[3] = tested on: Human diploid fibroblasts SNF25; experiment: In vitro toxicity by evaluation of growth curve; format: cell-based; conditions: 0-12.5 μM, 12 days, SNF25 passage 27
Experimental: Human diploid fibroblasts SNF25 (passage 27) were seeded in 24-well plate (10.000 cells/well). The cultivation medium (DMEM containing 5 g/l glucose, 2 mM glutamin, 100 U/ml penicillin, 100 μg/ml streptomycin and 10% fetal calf serum) was removed and replaced with the cultivation medium containing the tested compound in concentration range of 0-12.5 μM. Each concentration was tested in triplicate. The cell number was counted during next 12 days.

| SMILES | EC50 (AHK3) [µM] | also measured |
| --- | --- | --- |
| Fc1cccc(Nc2nc(Cl)nc3nc[nH]c23)c1 [Compound 6, 2-Chloro-6-(3-fluoroanilino)purine] |  | GI50 [1]: > 167 µM |
| COc1cccc(Nc2nc(F)nc3nc[nH]c23)c1 [Compound 51, 2-Fluoro-6-(3-methoxyanilino)purine] | 22.7 |  |
| Nc1nc(Nc2cccc(O)c2)c2nc[nH]c2n1 [Compound 72] | 7.7 |  |
| Nc1nc(Nc2cccc(Cl)c2)c2nc[nH]c2n1 [Compound 66] | 43 |  |
| Clc1cccc(Nc2nc(Cl)nc3nc[nH]c23)c1 [Compound 3, 2-Chloro-6-(3-chloroanilino)purine] | 20 |  |
| Fc1cccc(Nc2nc(S)nc3[nH]cnc23)c1 [Compound 83] | > 50 |  |
| Clc1ccc(Nc2nc(Cl)nc3[nH]cnc23)cc1 [Compound 4] |  | GI50 [1]: > 167 µM |
| COc1cccc(Nc2nc(Cl)nc3nc[nH]c23)c1 [Compound 12, 2-Chloro-6-(3-methoxyanilino)purine] | 9.5 | effect on flowering (WT Arabidopsis plants): altered development of flowers and inhibition of fertilisation; reversion of WT phenotype [2]: reversion of WT phenotype appeared |
| Oc1cccc(Nc2nc(F)nc3[nH]cnc23)c1 [Compound 48] | 15 | GI50 [1]: > 167 µM |
| Fc1nc(Nc2cccc(Cl)c2)c2nc[nH]c2n1 [Compound 42] | 31.6 |  |
| Fc1nc(Nc2ccccc2)c2nc[nH]c2n1 [Compound 40] | 19 |  |
| Oc1cccc(Nc2nc(Cl)nc3nc[nH]c23)c1 [Compound 9, 2-Chloro-6-(3-hydroxyanilino)purine] | 2.8 |  |
| Clc1nc(Nc2ccccc2)c2[nH]cnc2n1 [Compound 1, 2-Chloro-6-anilinopurine] |  | growth curve (cell number) [3]: not toxic against human diploid fibroblasts |
